According to article PMC7037862, “Tricyclic Nucleobase Analogs and Their Ribosides as Substrates and Inhibitors of Purine-Nucleoside Phosphorylases III. Aminopurine Derivatives” (Molecules, 2020):
Where two headings read alike, the source gives them in different places.

Columns and labels:
calf PNP-wt = target: T1, calf PNP-wt (Bos taurus, UniProt P55859); assay: Enzymatic phosphorolysis of ribosides, calf PNP wild type; type: biochemical; conditions: for Km: 40 mM phosphate buffer pH 7; for Vmax (Relative): relative to Vmax of guanosine phosphorolysis (=100)
T1 construct: made in house; host or cells: E. coli
T1 sequence (P55859 1-289): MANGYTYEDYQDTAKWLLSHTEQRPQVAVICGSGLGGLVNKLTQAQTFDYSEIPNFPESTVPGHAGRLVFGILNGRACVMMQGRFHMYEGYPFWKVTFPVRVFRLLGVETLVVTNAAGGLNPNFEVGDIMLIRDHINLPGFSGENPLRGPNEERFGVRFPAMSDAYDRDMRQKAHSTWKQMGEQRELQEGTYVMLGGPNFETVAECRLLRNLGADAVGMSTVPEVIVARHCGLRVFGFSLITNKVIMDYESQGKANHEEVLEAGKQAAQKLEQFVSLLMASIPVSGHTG
Method: (§1) Recombinant E. coli PNP, calf spleen PNP, and their mutated forms were expressed in E. coli and purified according to the procedures described earlier. Enzyme concentrations were calculated per monomer.
(§2) Enzymatic ribosylation reactions were carried out in 1 mL cuvettes (pathlength 4 mm) in ~50 mM HEPES buffer, pH 7.3, using 0.5 mM R1P as a ribose source. Reactions were followed fluorimetrically (see Section 2.4). On a larger scale (2–4 mg), the reactions were run in Eppendorf tubes, volume 2–3 mL, using either R1P (3–10 mM) or 7-methylguanosine as ribose sources. Products were purified by semi-preparative HPLC, concentrated and the final solutions kept frozen. Their structure has been confirmed by NMR (see Section 2.4 and Supplementary Materials) and by MS: comp. 3: m/z = 292.10385, comp. 4: m/z = 292.10400, comp. 5: m/z = 292.10398, calculated for C12H13N5O4 + H: 292.10403. Phosphorolysis reactions were run in 40–50 mM phosphate buffer, pH 7.0 or 6.5, and followed spectrally or fluorimetrically. Kinetic parameters were calculated by standard methods.

E. coli PNP-wt [1] = target: T2, E. coli PNP-wt (Escherichia coli, UniProt P0ABP8); assay: Enzymatic phosphorolysis of ribosides, E. coli PNP wild type; type: biochemical; conditions: for Vmax (Relative): relative to Vmax of guanosine phosphorolysis (=100)
T2 construct: made in house; host or cells: E. coli
T2 sequence (P0ABP8 2-239 limits assumed): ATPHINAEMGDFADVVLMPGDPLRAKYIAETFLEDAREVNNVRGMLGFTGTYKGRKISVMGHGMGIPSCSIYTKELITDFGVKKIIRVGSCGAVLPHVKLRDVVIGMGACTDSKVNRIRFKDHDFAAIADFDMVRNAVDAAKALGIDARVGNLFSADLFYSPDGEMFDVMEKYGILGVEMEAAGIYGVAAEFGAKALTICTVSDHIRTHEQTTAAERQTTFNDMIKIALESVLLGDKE
Method: as §1, §2

[2] = Ionization constants (pKa), determined spectrophotometrically; type: physicochemical; conditions: phosphate and/or acetate buffers
Method: Fluorescence spectra were measured on a Varian Eclipse instrument (Varian Corp., Palo Alto, CA, USA), and UV absorption kinetic experiments were performed on a Cary 5000 (Varian Corp., Palo Alto, CA, USA) thermostated spectrophotometer. Fluorescence yields were determined relative to tryptophan (0.15) or 1,N^6-ethenoadenosine in water (0.56, see ref. [2]). Emission spectra were measured in semi-micro cuvettes, pathlength 4 mm, to diminish the inner-filter effect. Typical spectral resolution was 2.5 nm. The ionization constants (pKa values) were determined spectrophotometrically using 20–50 mM phosphate and/or acetate buffers.

calf PNP N243D = target: T3, calf PNP N243D (Bos taurus, UniProt P55859, N243D); assay: Enzymatic ribosylation with α-D-ribose-1-phosphate, calf PNP N243D mutant; type: biochemical; conditions: for Vmax (Relative): ribosylation, relative to guanine ribosylation rate (=100)
T3 construct: made in house; host or cells: E. coli
T3 sequence (P55859 1-289 N243D): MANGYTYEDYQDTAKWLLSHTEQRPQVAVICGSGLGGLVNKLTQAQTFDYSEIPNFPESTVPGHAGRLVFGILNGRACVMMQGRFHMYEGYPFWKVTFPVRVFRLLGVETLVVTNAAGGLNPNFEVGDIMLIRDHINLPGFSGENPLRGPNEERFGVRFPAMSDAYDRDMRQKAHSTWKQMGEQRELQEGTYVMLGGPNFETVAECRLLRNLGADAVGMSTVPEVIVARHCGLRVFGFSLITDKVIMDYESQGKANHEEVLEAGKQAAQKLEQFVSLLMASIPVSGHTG
Method: as §1, §2

calf spleen PNP (wt) = target: T4, calf spleen PNP (wt) (Bos taurus, UniProt P55859); assay: Enzymatic ribosylation with α-D-ribose-1-phosphate, calf PNP wild type; type: biochemical; conditions: for Vmax (Relative): ribosylation, relative to guanine ribosylation rate (=100); for ribosylation activity: trimeric calf spleen PNP, wild type
T4 construct: made in house; host or cells: E. coli
T4 sequence (P55859 1-289): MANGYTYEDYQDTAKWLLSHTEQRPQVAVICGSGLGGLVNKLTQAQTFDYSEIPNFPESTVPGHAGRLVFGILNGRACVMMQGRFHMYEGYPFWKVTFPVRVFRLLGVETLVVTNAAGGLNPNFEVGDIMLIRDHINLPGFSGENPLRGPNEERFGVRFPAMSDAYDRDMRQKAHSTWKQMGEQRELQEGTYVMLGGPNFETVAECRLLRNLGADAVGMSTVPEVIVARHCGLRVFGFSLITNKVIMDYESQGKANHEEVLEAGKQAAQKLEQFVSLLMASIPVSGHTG
Method: as §1, §2

E. coli PNP-wt [3] = target: T2, E. coli PNP-wt; assay: Enzymatic ribosylation with α-D-ribose-1-phosphate, E. coli PNP wild type; type: biochemical; conditions: for Vmax (Relative): ribosylation, relative to guanine ribosylation rate (=100)
Method: as §1, §2

E. coli PNP D204N = target: T5, E. coli PNP D204N (Escherichia coli, UniProt P0ABP8, D205N); assay: Enzymatic ribosylation with α-D-ribose-1-phosphate, E. coli PNP D204N mutant; type: biochemical
T5 construct: made in house; host or cells: E. coli
Method: as §1, §2

E. coli PNP S90A = target: T6, E. coli PNP S90A (Escherichia coli, UniProt P0ABP8, S91A); assay: Enzymatic ribosylation with α-D-ribose-1-phosphate, E. coli PNP S90A mutant; type: biochemical
T6 construct: made in house; host or cells: E. coli
Method: as §1, §2

E. coli PNP = target: T7, E. coli PNP (Escherichia coli, UniProt P0ABP8); assay: Fluorescence titration of E. coli PNP with ligand (enzyme-ligand complexes); type: binding; conditions: in the presence of phosphate, 40 mM, pH 7, 20 °C
T7 construct: made in house; host or cells: E. coli
Method: Additionally, the fluorescence excitation spectra reveal fluorescence energy transfer (FRET) from the protein to the complexed ligand, since they show marked enhancement in the region 270–280 nm, where the tyrosine residues of the PNP molecule absorb (Figure 10).
Figure 10 Changes in fluorescence excitation (a) and emission spectra (b), observed during the titration of E. coli PNP with N^2,3-etheno-2-aminopurine (2). […] Spectra of the free ligand (3.5 μM) are given for comparison (points). Excitation spectrum of the protein, monitored at 310 nm, is given in black. Conditions: 40 mM phosphate, pH 7, at 20 °C. Concentration of protein was 10.1 μM (per subunit); that of the titrant was 0 to 3.5 μM. Lower panels: Fluorescence difference spectra, calculated from data presented on panels (a) and (b), (c) difference excitation (observed at 380 nm), (d) difference emission spectra, excited at 275 nm. Substrate concentrations are 0.17, 0.69, 1.37, 2.36 and 3.31 μM.
Etheno-tubercidine (6) forms somewhat similar fluorescent complexes with the E. coli PNP. As shown below, FRET from the protein to the ligand is evident in the excitation spectra (Figure 11), and the ligand fluorescence blue shifted from 415 to ca. 390 nm (Figure 11b,c). In this case more than 60% of protein fluorescence is quenched when protein binding sites are saturated (cf. Figure 11). […]

[4] = substrate: c1cn2c(n1)ncc1nc[nH]c12; assay: Enzymatic ribosylation with α-D-ribose-1-phosphate, calf PNP wild type; type: biochemical; conditions: other: ribosylation by R1P, calf-wt PNP, 40 mM HEPES pH 7
Method: as §1, §2

[5] = substrate: c1cn2c(n1)ncc1nc[nH]c12; assay: Enzymatic ribosylation with α-D-ribose-1-phosphate, calf PNP N243D mutant; type: biochemical; conditions: other: ribosylation by R1P, 40 mM HEPES pH 7
Method: as §1, §2

[6] = substrate: c1cn2c(n1)ncc1nc[nH]c12; assay: Enzymatic ribosylation with α-D-ribose-1-phosphate, E. coli PNP wild type; type: biochemical
Method: as §1, §2

[7] = protonation, read-out: pKa (protonation)
[8] = acidic dissociation, read-out: pKa (acidic dissociation of the imidazole proton)
[9] = ribosylation by R1P, 40 mM HEPES pH 7
[10] = ribosylation, relative to guanine ribosylation rate (=100)

## OC[C@H]1O[C@@H](n2cnc3cn4ccnc4nc32)[C@H](O)[C@@H]1O [Compound 3, 1,N^2-etheno-2-aminopurine-N^9-β-D-riboside]
Calf PNP-wt
  Km: nr
  Vmax (Relative): <0.1
E. coli PNP-wt [1]; 40 mM phosphate buffer pH 7
  Km: nr
E. coli PNP-wt [1]
  Vmax (Relative): <1

## OC[C@H]1O[C@@H](n2ccn3cc4ncnc-4nc23)[C@H](O)[C@@H]1O [Compound 4, 1,N^2-etheno-2-aminopurine-N^2-β-D-riboside]
Calf PNP-wt
  Km: nr
  Vmax (Relative): <0.1
E. coli PNP-wt [1]
  Vmax (Relative): 4
[2]; [7]
  pKa: ~6.3

## c1cn2cc3nc[nH]c3nc2n1 [Compound 1, 1,N^2-etheno-2-aminopurine]
Calf PNP N243D; calf PNP N243D
  Vmax (Relative): traces
Calf spleen PNP (wt); ribosylation by R1P, calf-wt PNP, 40 mM HEPES pH 7
  Km: nr
Calf spleen PNP (wt); calf-wt PNP
  Vmax (Relative): < 0.1
Calf spleen PNP (wt)
  ribosylation activity: apparently inactive
[2]; [8]
  pKa: 8.2
[2]; [7]
  pKa: 5.6
E. coli PNP-wt [3]
  Ribosylation Site: mostly N^2
  Vmax (Relative): ~1
E. coli PNP-wt [3]; [9]
  Km: < 10 µM

## OC[C@H]1O[C@@H](n2ccn3c4ncnc-4cnc23)[C@H](O)[C@@H]1O [Compound 5, N^2,3-etheno-2-aminopurine-N^2-β-D-riboside]
Calf PNP-wt
  Vmax (Relative): 3
E. coli PNP-wt [1]
  Vmax (Relative): 115
[2]; [7]
  pKa: 6.15

## c1cn2c(n1)ncc1nc[nH]c12 [Compound 2, N^2,3-etheno-2-aminopurine]
Calf PNP N243D; calf PNP N243D
  Ribosylation Site: predominantly N^2
  Vmax (Relative): 29
Calf PNP N243D; calf PNP mutated in the active site (N243D)
  ribosylation activity: fairly rapidly ribosylated
Calf spleen PNP (wt); calf-wt PNP
  Ribosylation Site: predominantly N^2
  Vmax (Relative): ~5
Calf spleen PNP (wt)
  ribosylation activity: moderate rate
[2]; [8]
  pKa: ~9.5
[2]; [7]
  pKa: 5
E. coli PNP D204N
  Ribosylation Site: predominantly N^2
E. coli PNP D204N; [9]
  Km: 12 µM
E. coli PNP D204N; [10]
  Vmax (Relative): 30
E. coli PNP S90A
  Ribosylation Site: predominantly N^2
E. coli PNP S90A; [9]
  Km: ~20 µM
E. coli PNP S90A; [10]
  Vmax (Relative): 23
E. coli PNP-wt [3]
  Ribosylation Site: predominantly N^2
  Vmax (Relative): 20
E. coli PNP
  quenching of the protein fluorescence at 305 nm: moderate quenching

B1: calf spleen PNP (wt) (Bos taurus) (protein)
chain: MANGYTYEDYQDTAKWLLSHTEQRPQVAVICGSGLGGLVNKLTQAQTFDYSEIPNFPESTVPGHAGRLVFGILNGRACVMMQGRFHMYEGYPFWKVTFPVRVFRLLGVETLVVTNAAGGLNPNFEVGDIMLIRDHINLPGFSGENPLRGPNEERFGVRFPAMSDAYDRDMRQKAHSTWKQMGEQRELQEGTYVMLGGPNFETVAECRLLRNLGADAVGMSTVPEVIVARHCGLRVFGFSLITNKVIMDYESQGKANHEEVLEAGKQAAQKLEQFVSLLMASIPVSGHTG
notes: made in house; host or cells: E. coli
[4]
  Km: ~8 µM

B2: calf PNP N243D (Bos taurus; N243D) (protein)
chain: MANGYTYEDYQDTAKWLLSHTEQRPQVAVICGSGLGGLVNKLTQAQTFDYSEIPNFPESTVPGHAGRLVFGILNGRACVMMQGRFHMYEGYPFWKVTFPVRVFRLLGVETLVVTNAAGGLNPNFEVGDIMLIRDHINLPGFSGENPLRGPNEERFGVRFPAMSDAYDRDMRQKAHSTWKQMGEQRELQEGTYVMLGGPNFETVAECRLLRNLGADAVGMSTVPEVIVARHCGLRVFGFSLITDKVIMDYESQGKANHEEVLEAGKQAAQKLEQFVSLLMASIPVSGHTG
notes: as for B1
[5]
  Km: 110 µM

B3: E. coli PNP (wt) (Escherichia coli K-12) (protein)
chain: ATPHINAEMGDFADVVLMPGDPLRAKYIAETFLEDAREVNNVRGMLGFTGTYKGRKISVMGHGMGIPSCSIYTKELITDFGVKKIIRVGSCGAVLPHVKLRDVVIGMGACTDSKVNRIRFKDHDFAAIADFDMVRNAVDAAKALGIDARVGNLFSADLFYSPDGEMFDVMEKYGILGVEMEAAGIYGVAAEFGAKALTICTVSDHIRTHEQTTAAERQTTFNDMIKIALESVLLGDKE
notes: as for B1
[6]; other: E. coli PNP and its mutated forms
  Km: 10 µM
[6]; other: ribosylation by R1P, E. coli-wt PNP, 40 mM HEPES pH 7, pH 7.0
  Km: 11 µM
